We go through three compounds from patent publication US20110318403A1, “Preparation and Use of Pouteria Lucuma Extract” (priority 2008, published 2011).

In test [1] the test system is transgenic zebrafish larvae tail fin (GFP-positive endothelial cells). Kind of test: zebrafish larvae tailfin primordia amputation regeneration / angiogenesis assay. The class given is in vivo. To be noted: 48 hours after amputation. An excerpt:
A tailfin model of in vivo wound healing and regeneration was also used to assess the ability of a lucuma nut oil extract to promote appropriate wound healing, and the results of these assays also provided information on the angiogenic properties of LNO. In this transgenic model, the fli1 promoter drives expression of green fluorescent protein (GFP) in all the vascular endothelial cells, which allows tracking of wound healing in real time by direct observation of angiogenesis. Forty-eight-hour-old or five-day-old zebrafish larvae (AB strain) were anesthetized in 0.04% 3-amino benzoic acid ethylester (tricaine; MS-222) and placed in 2% agar Petri dishes. Surgical blades were used to amputate tailfin primordia just posterior to the notochord. Larvae were placed in 24-well plates containing either water (control), CGS-21680 (50 μg/mL; CAS120225-54-9) or LNO (10-100 μg/mL in water) and incubated at 28° C. Primordia re-growth was measured using fluorescence microscopy and image analysis of fluorescent endothelial cells. For this assay, the fin fluorescent area was normalized against the total fin area. […] The effects of LNO were analyzed and compared to the positive control CGS-21680 (2-p-(2-Carboxyethyl)phenethylamino-5′-N-ethylcarboxamidoadenosine). […]

In test [2] the test system is Human neonatal fibroblasts. As to the kind of experiment: scratched fibroblast assay (wound closure of monolayer). The class given is cell-based. To be noted: equivalent concentrations of pure FAs (LA 24 μg/mL, OA 18 μg/mL), 24 hours. As to the method:
Human neonatal fibroblasts were maintained in Dulbecco's Modified Eagle Medium (D-MEM)+10% fetal bovine serum (FBS) and were kept in a humidified 37° C. incubator with 5% CO2. Cells were plated at a density of 1×10^4 cells per well in a 24-well plate and incubated for 24 hours, or until 100% confluency was reached. Each monolayer was wounded by dragging a pipette tip across the bottom of the well, using a straight edge as a guide (approximately 1.3 mm in width). The media was removed and cells were washed with 500 μL PBS twice to remove detached cells or cell debris. The cells were treated as follows: DMEM+10% FBS+vehicle (0.06% glycerol, positive control), DMEM+vehicle (0.06% glycerol, negative control), DMEM+vehicle (0.06% glycerol)+LNO (60 μg/mL), DMEM+vehicle (0.06% glycerol)+LA (24 μg/mL) and DMEM+vehicle (0.06% glycerol)+OA (18 μg/mL). Photos were taken of each well to measure the initial area of the wound. After 24 hours incubation, wells were photographed again. The scratched area was measured using […] Photoshop CS software, and percentage of wound closure at each time point was derived by the following formula: (1−[current wound size/initial wound size])×100.

Test [3] deals with dermal wounds of CD-1 mice. As to the kind of experiment: CD-1 mouse excision wound healing assay. Particulars: topical once daily, 10 μg/mouse, CT50 ± SE. Format: in vivo. As to the method: The LNO extract of Example 1 was further used in two in vivo models to assess wound healing and regeneration. […] In this experiment, a 12 mm skin punch was used to create a wound in mice and the mice were then divided into three groups, i.e., a negative control group, an experimental group and a positive control group. Immediately following wounding, the wounds were treated for ten days with either vehicle (0.5% carboxymethylcellulose in PBS), lucuma nut oil (LNO) (200 μg/mouse) in vehicle, or the positive control CGS-21680 (CAS120225-54-9, a specific adenosine A2A receptor agonist offered commercially by Tocris; see U.S. Pat. No. 4,968,697), also in vehicle. […] Wound healing assays were performed by MDS Pharma Services, Taiwan, MDSPS Testing Code 1115924, according to the protocol describe elsewhere (Kapoor, et al., J. Clin. Invest., 118:3279-3290 (2008); Montesinos, et al., J. Exp. Med., 186:1615-1620 (1997), each description incorporated herein by reference). Briefly, groups of 5 male CD-1 mice weighing 22±2 g were used for this assay. […] The wounded area was traced onto clear plastic sheets on days 3, 5, 7, 9 and 11 and quantitated by using an Image Analyzer (Life Science Resources VISTA, Version 30). […]

Consider `CCCCC/C=C\C/C=C\CCCCCCCC(=O)O` [LA, linoleic acid], for which, in test [1], the “GFP-positive endothelial cells in regenerating tail fin (angiogenesis)” value was “not found”. For the same compound, the “cell migration in scratched fibroblasts compared with LNO 60 μg/mL” value in test [2] is given as “not able to reproduce the effect of LNO in cell migration”.

On to `CCCCCCCC/C=C\CCCCCCCC(=O)O` [OA, oleic acid], for which the “GFP-positive endothelial cells in regenerating tail fin (angiogenesis)” value in test [1] is listed as “not found”. The “cell migration in scratched fibroblasts compared with LNO 60 μg/mL” value in test [2] is given as “not able to reproduce the effect of LNO in cell migration”. Consider `CCNC(=O)[C@H]1O[C@@H](n2cnc3c(N)nc(NCCc4ccc(CCC(=O)O)cc4)nc32)[C@H](O)[C@@H]1O` [CGS, 2-p-(2-Carboxyethyl)phenethylamino-5′-N-ethylcarboxamidoadenosine], for which the “Dermal wound closure expressed as half-closure time (CT50)” value in test [3] is listed as 6.04 ± 0.2 days.
